# Test: Human microsomal stability assay
# Type: in vitro ADME
# Details: human liver microsomes, 1 μM test compound, 0.5 mg/mL protein, 37° C., pH 7.4
# Description: Human Microsomal Stability Assay
# Human liver microsomes (Cat.NO.: 452117, Corning, USA) were preincubated with test compound for 10 minutes at 37° C. in 100 mM potassium phosphate buffer, pH 7.4. The reactions were initiated by adding NADPH regenerating system. The final incubation mixtures contained 1 μM test compound, 0.5 mg/mL liver microsomal protein, 1 mM MgCl2, 1 mM NADP, 1 unit/mL isocitric dehydrogenase and 6 mM isocitric acid in 100 mM potassium phosphate buffer, pH 7.4. After incubation times of 0, 3, 6, 9, 15 and 30 minutes at 37° C., 300 μL of cold ACN (including internal standard) was added to 100 μL incubation mixture to terminate the reaction. Following precipitation and centrifugation, 100 uL supernatant will be taken out and added 300 uL water. The amount of compound remaining in the samples was determined by LC-MS/MS. Controls of no NADPH regenerating system at zero and 30 minutes were also prepared and analyzed. The results were categorized as: low (7.0 mL/min/kg), medium (7.0-16.2 mL/min/kg) and high (16.2-23.2 mL/min/kg).
row,SMILES,CL (h) [mL/min/kg]
1,"CC1(N)CCN(c2ccc3c(n2)CN2CCN(c4ccc(C#N)c5ncccc45)C[C@H]32)CC1 [Example 4B, 5-[(2S)-11-(4-amino-4-methyl-1-piperidyl)-4,7,10-triazatricyclo[7.4.0.02,7]trideca-1(9),10,12-trien-4-yl]quinoline-8-carbonitrile]",8.1
2,"N#Cc1ccc(N2CCN3Cc4cc(N5CCNCC5)ncc4C3C2)c2cccnc12 (centres unmarked) [Example 1, 5-(11-Piperazin-1-yl-4,7,12-triazatricyclo[7.4.0.02,7]trideca-1(9),10,12-trien-4-yl)quinoline-8-carbonitrile]",6.2

# From patent US12503471B2, “Triazatricycle compounds for the treatment of autoimmune disease” (Hoffmann-La Roche Inc., priority 2019, dated 2025)
